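Five compound concentrations were applied to cells in 96-well plates for 48 hours; endpoints were derived by simple linear interpolation of the resulting dose-response curve. TGI is the concentration that stops growth completely.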
What was measured:
Experiment in all cases: NCI-60 cell line screen, 48 h
COLO 205 colon = system: COLO 205 colon
SF-539 CNS = system: SF-539 CNS
BT-549 breast = system: BT-549 breast
MCF7 breast = system: MCF7 breast
NCI-H522 lung = system: NCI-H522 lung
A549 NSCLC = system: A549 NSCLC
DU-145 prostate = system: DU-145 prostate
SW-620 colon = system: SW-620 colon
A498 renal = system: A498 renal
SK-MEL-5 melanoma = system: SK-MEL-5 melanoma
KM12 colon = system: KM12 colon
OVCAR-3 ovarian = system: OVCAR-3 ovarian
SR leukemia = system: SR leukemia
OVCAR-4 ovarian = system: OVCAR-4 ovarian
EKVX NSCLC = system: EKVX NSCLC
SK-MEL-2 melanoma = system: SK-MEL-2 melanoma
MDA-MB-231 breast = system: MDA-MB-231 breast
HT29 colon = system: HT29 colon
M14 melanoma = system: M14 melanoma
UACC-257 melanoma = system: UACC-257 melanoma
MOLT-4 leukemia = system: MOLT-4 leukemia
HCT-116 colon = system: HCT-116 colon
NCI-H226 lung = system: NCI-H226 lung
CAKI-1 renal = system: CAKI-1 renal
HS 578T breast = system: HS 578T breast
SNB-75 CNS = system: SNB-75 CNS
HOP-92 NSCLC = system: HOP-92 NSCLC
T-47D breast = system: T-47D breast
SN12C renal = system: SN12C renal
IGROV1 ovarian = system: IGROV1 ovarian
LOX IMVI melanoma = system: LOX IMVI melanoma
NCI/ADR-RES ovarian = system: NCI/ADR-RES ovarian
ACHN renal = system: ACHN renal
HCC-2998 colon = system: HCC-2998 colon
OVCAR-5 ovarian = system: OVCAR-5 ovarian
RXF 393 renal = system: RXF 393 renal
HCT-15 colon = system: HCT-15 colon
K-562 leukemia = system: K-562 leukemia
NCI-H23 lung = system: NCI-H23 lung
MDA-N = system: MDA-N
PC-3 prostate = system: PC-3 prostate
UO-31 renal = system: UO-31 renal
HL-60(TB) leukemia = system: HL-60(TB) leukemia
HOP-62 NSCLC = system: HOP-62 NSCLC
RPMI-8226 leukemia = system: RPMI-8226 leukemia
OVCAR-8 ovarian = system: OVCAR-8 ovarian
786-0 renal = system: 786-0 renal
CCRF-CEM leukemia = system: CCRF-CEM leukemia
UACC-62 melanoma = system: UACC-62 melanoma
SNB-19 CNS = system: SNB-19 CNS
SF-295 CNS = system: SF-295 CNS
MDA-MB-435 = system: MDA-MB-435
TK-10 renal = system: TK-10 renal
NCI-H460 lung = system: NCI-H460 lung
SF-268 CNS = system: SF-268 CNS
MALME-3M melanoma = system: MALME-3M melanoma
U251 CNS = system: U251 CNS
SK-OV-3 ovarian = system: SK-OV-3 ovarian
SK-MEL-28 melanoma = system: SK-MEL-28 melanoma

`Cc1cc2nc3ccccc3n2c2nc(N)ccc12` was tested, and the TGI (COLO 205 colon) was > 100 µM, the TGI (SF-539 CNS) was 51.6 µM and the TGI (BT-549 breast) was > 100 µM. The TGI (MCF7 breast) was > 100 µM, the TGI (NCI-H522 lung) was > 100 µM and the TGI (A549 NSCLC) was > 100 µM. The TGI (DU-145 prostate) was > 100 µM, the TGI (SW-620 colon) was > 100 µM and the TGI (A498 renal) was > 100 µM. For the same compound, the TGI (SK-MEL-5 melanoma) was 40.2 µM, the TGI (KM12 colon) was > 100 µM and the TGI (OVCAR-3 ovarian) was > 100 µM. The TGI (SR leukemia) was > 100 µM, the TGI (OVCAR-4 ovarian) was > 100 µM and the TGI (EKVX NSCLC) was > 100 µM. The TGI (SK-MEL-2 melanoma) was > 100 µM, the TGI (MDA-MB-231 breast) was > 100 µM and the TGI (HT29 colon) was > 100 µM. For the same compound, the TGI (M14 melanoma) was > 100 µM, the TGI (UACC-257 melanoma) was > 100 µM and the TGI (MOLT-4 leukemia) was > 100 µM. For the same compound, the TGI (HCT-116 colon) was > 100 µM, the TGI (NCI-H226 lung) was 84.9 µM and the TGI (CAKI-1 renal) was > 100 µM. The TGI (HS 578T breast) was > 100 µM, the TGI (SNB-75 CNS) was > 100 µM and the TGI (HOP-92 NSCLC) was 69 µM. The TGI (T-47D breast) was > 100 µM, the TGI (SN12C renal) was > 100 µM and the TGI (IGROV1 ovarian) was > 100 µM. For the same compound, the TGI (LOX IMVI melanoma) was > 100 µM, the TGI (NCI/ADR-RES ovarian) was > 100 µM and the TGI (ACHN renal) was > 100 µM. For the same compound, the TGI (HCC-2998 colon) was > 100 µM, the TGI (OVCAR-5 ovarian) was > 100 µM and the TGI (RXF 393 renal) was > 100 µM. The TGI (HCT-15 colon) was 93.1 µM, the TGI (K-562 leukemia) was > 100 µM and the TGI (NCI-H23 lung) was > 100 µM. For the same compound, the TGI (MDA-N) was > 100 µM, the TGI (PC-3 prostate) was > 100 µM and the TGI (UO-31 renal) was > 100 µM. The TGI (HL-60(TB) leukemia) was > 100 µM, the TGI (HOP-62 NSCLC) was > 100 µM and the TGI (RPMI-8226 leukemia) was 70.2 µM. The TGI (OVCAR-8 ovarian) was 80.4 µM, the TGI (786-0 renal) was > 100 µM and the TGI (CCRF-CEM leukemia) was > 100 µM. The TGI (UACC-62 melanoma) was > 100 µM, the TGI (SNB-19 CNS) was > 100 µM and the TGI (SF-295 CNS) was 71.5 µM. The TGI (MDA-MB-435) was > 100 µM, the TGI (TK-10 renal) was > 100 µM and the TGI (NCI-H460 lung) was 27.5 µM. For the same compound, the TGI (SF-268 CNS) was > 100 µM.
For `CC(C)=CCCC(C)CCOS(=O)C(F)(F)F` (centres undefined), the TGI (COLO 205 colon) was 20.2 µM, the TGI (SF-539 CNS) was > 100 µM and the TGI (BT-549 breast) was 77.8 µM. The TGI (MCF7 breast) was > 100 µM, the TGI (NCI-H522 lung) was 5.12 µM and the TGI (A549 NSCLC) was 72.1 µM. For the same compound, the TGI (MALME-3M melanoma) was 18.9 µM, the TGI (DU-145 prostate) was > 100 µM and the TGI (U251 CNS) was 22.9 µM. The TGI (SW-620 colon) was > 100 µM, the TGI (A498 renal) was 63.7 µM and the TGI (SK-MEL-5 melanoma) was 33.1 µM. For the same compound, the TGI (KM12 colon) was > 100 µM, the TGI (OVCAR-3 ovarian) was 27.8 µM and the TGI (SR leukemia) was 10.3 µM. For the same compound, the TGI (OVCAR-4 ovarian) was 20.5 µM, the TGI (EKVX NSCLC) was 30.2 µM and the TGI (SK-MEL-2 melanoma) was 36.5 µM. The TGI (MDA-MB-231 breast) was 61.4 µM, the TGI (HT29 colon) was 28.5 µM and the TGI (M14 melanoma) was 6.59 µM. For the same compound, the TGI (UACC-257 melanoma) was 52.9 µM, the TGI (MOLT-4 leukemia) was 24.2 µM and the TGI (HCT-116 colon) was 30.3 µM. The TGI (NCI-H226 lung) was 41.4 µM, the TGI (CAKI-1 renal) was > 100 µM and the TGI (SK-OV-3 ovarian) was > 100 µM. For the same compound, the TGI (HS 578T breast) was 5.31 µM, the TGI (SNB-75 CNS) was 67.7 µM and the TGI (HOP-92 NSCLC) was > 100 µM. For the same compound, the TGI (T-47D breast) was > 100 µM, the TGI (SN12C renal) was 41.7 µM and the TGI (IGROV1 ovarian) was 74.6 µM. It also gave a TGI (LOX IMVI melanoma) of 37.2 µM, a TGI (NCI/ADR-RES ovarian) of 30.4 µM and a TGI (ACHN renal) of 34.4 µM. The TGI (HCC-2998 colon) was 27.5 µM, the TGI (OVCAR-5 ovarian) was 47.8 µM and the TGI (RXF 393 renal) was 7.57 µM. The TGI (HCT-15 colon) was 11.5 µM, the TGI (K-562 leukemia) was > 100 µM and the TGI (NCI-H23 lung) was 14 µM. For the same compound, the TGI (MDA-N) was 14 µM, the TGI (PC-3 prostate) was 45.3 µM and the TGI (SK-MEL-28 melanoma) was 34.6 µM. For the same compound, the TGI (UO-31 renal) was 35.2 µM, the TGI (HL-60(TB) leukemia) was 9.14 µM and the TGI (HOP-62 NSCLC) was > 100 µM. The TGI (RPMI-8226 leukemia) was 90.8 µM, the TGI (OVCAR-8 ovarian) was > 100 µM and the TGI (786-0 renal) was > 100 µM. The TGI (CCRF-CEM leukemia) was > 100 µM, the TGI (UACC-62 melanoma) was 21.7 µM and the TGI (SNB-19 CNS) was 78 µM. The TGI (SF-295 CNS) was 86.8 µM, the TGI (MDA-MB-435) was 37.1 µM and the TGI (TK-10 renal) was > 100 µM. For the same compound, the TGI (NCI-H460 lung) was 46.3 µM and the TGI (SF-268 CNS) was 44.7 µM.
